Several values for one entry are separate records, joined by “and”; a condition that tells them apart may be missing. Identical values can stand only once.
Key:
in vivo = conditions: for AUC(0-inf) / AUC(0-t) / Cmax / MRT last / Tmax / Vd / clearance / half-life: rat, in vivo
Procedure: Here, serial doses of lobeline were administered to male and female rats intravenously, subcutaneously or orally, and the pharmacokinetic profiles of the parent lobeline and its epimer were monitored in plasma.

[1] = Lobeline epimerization in pH 7.4 phosphate buffer control; conditions: after 2 hours, with impurity
Procedure: In order to determine the tendency of lobeline to undergo epimerization in the HEPES buffer employed in the 25° C. [^3H]DTBZ binding study and the 37° C. VMAT2 uptake studies previously described, analogous solution epimerization experiments were conducted using the corresponding conditions for each individual assay. […] As this dynamic phenomenon occurs, the ratio of lobeline to lobeline epimer in solution naturally changes over time. Further, depending upon the solution conditions, the rate and extent of epimerization may vary; thus, a ratio of lobeline to epimer, if achieved, may occur at various time points. After 2 hours, the 25° C. […] The epimerization of lobeline in the 37° C.

clinical = conditions: human, in vivo
Procedure: Three consecutive doses of lobeline (either 30, 45 and 45 mg in the first study group, or 60, 60 and 60 mg in the second group) were administered to human volunteers at 0800, 1200 and 1600 over two full inpatient days. The pharmacokinetics of lobeline and epimer were then assessed in each subject. […] A crude index of accumulation (non-steady state) was obtained by dividing the sixth dose trough concentration by that observed for the fifth dose.

[2] = Lobeline conversion to epimer in the buffer system used at 37° C. in the VMAT2 uptake study (HPLC); format: physicochemical; conditions: for Epimer %: VMAT2 uptake buffer, 37° C.
[3] = Pharmacokinetics of lobeline and epimer in human subjects after sublingual lobeline administration (7.5, 15, 30 mg); conditions: for CL/F (extravascular clearance): epimer
Excerpt: The pharmacokinetics of lobeline and lobeline epimer were examined in eight human subjects (Sub) after sublingual lobeline administration.

[4] = Lobeline conversion to epimer in the HEPES buffer system used at 25° C. in the [^3H]DTBZ binding study (HPLC); format: physicochemical; conditions: for Epimer %: [^3H]DTBZ binding buffer, 25° C.
Procedure: The initial dissolution of lobeline in water was followed by a 1:1 dilution of this stock solution in the appropriate HEPES buffer system, incubation at the prescribed temperature, and HPLC assay of each epimer and potential degradants over 2 hour incubation.
After 2 hours, the 25° C.

[5] = Lobeline conversion to epimer in deionized water (HPLC); format: physicochemical
Procedure: Extensive in vitro studies on the epimerization of lobeline were conducted in a variety of aqueous media. […] The concentration of the lobeline solution (500 mL) was ca. 0.5 mg/mL, and 1.5 mL aliquot parts were removed in triplicate at each time point and analyzed by HPLC. Corresponding pH measurements were performed with a Coming Model 240 pH meter.

[6] = epimer in plasma, individual human subjects, sublingual lobeline 7.50 mg
[7] = epimer in plasma, individual human subjects, sublingual lobeline 15.0 mg
[8] = epimer in plasma, individual human subjects, sublingual lobeline 30.0 mg
[9] = individual human subjects, sublingual lobeline 7.50 mg
[10] = individual human subjects, sublingual lobeline 15.0 mg
[11] = individual human subjects, sublingual lobeline 30.0 mg

## CN1[C@H](CC(=O)c2ccccc2)CCC[C@H]1C[C@H](O)c1ccccc1 (single isomer, unassigned; epimer 2) [Epimer, 2-[6S-(2S-hydroxy-2-phenyl-ethyl)-1-methyl-piperidin-2S-yl]-1-phenyl-ethanone]
In vivo; female, iv, 2 mg/kg
  AUC(0-inf): 76.9 ng·h/mL
  AUC(0-t): 75.4 ng·h/mL
  Cmax: 53.9 ng/mL
  MRT last: 1.6 h
  Tmax: 15 min
  Vd: 45.9 L/kg
  clearance: 0.433 mL/min/kg
  half-life: 88.2 min
In vivo; female, po, 20 mg/kg
  AUC(0-inf): 40.9 ng·h/mL
  AUC(0-t): 39.3 ng·h/mL
  Cmax: 23.8 ng/mL
  MRT last: 2.16 h
  Tmax: 30 min
  half-life: 103 min
In vivo; female, sc, 3 mg/kg
  AUC(0-inf): 128 ng·h/mL
  AUC(0-t): 127 ng·h/mL
  Cmax: 85 ng/mL
  MRT last: 1.5 h
  Tmax: 30 min
  half-life: 66.6 min
In vivo; male, iv, 2 mg/kg
  AUC(0-inf): 69.7 ng·h/mL
  AUC(0-t): 68.7 ng·h/mL
  Cmax: 47.6 ng/mL
  MRT last: 1.51 h
  Tmax: 15 min
  Vd: 46.3 L/kg
  clearance: 0.48 mL/min/kg
  half-life: 75.6 min
In vivo; male, po, 20 mg/kg
  AUC(0-inf): 54.8 ng·h/mL
  AUC(0-t): 54 ng·h/mL
  Cmax: 49.8 ng/mL
  MRT last: 1.73 h
  Tmax: 30 min
  half-life: 79.2 min
In vivo; male, sc, 3 mg/kg
  AUC(0-inf): 109 ng·h/mL
  AUC(0-t): 108 ng·h/mL
  Cmax: 54.4 ng/mL
  MRT last: 1.45 h
  Tmax: 30 min
  half-life: 66.6 min
In vivo; rats, irrespective of dose or route
  time after lobeline administration within which significant epimer concentrations were achieved in plasma: 15 to 30 min
[1]; pH 7.4 phosphate buffer control, same temperature as 25° C. binding buffer
  component content of solution: 35%
[1]; phosphate buffer control for the 37° C. VMAT2 uptake buffer
  component content of solution: 36%
clinical
  half-life: 208 min
  time at which geometric mean plasma concentration peaked: 1.38 h
[2]; 37° C. uptake buffer with ATP-Mg2+ cofactor reduced from 2 mM to 0.4 mM, after 2 hours, with impurity
  component content of solution: 33%
[2]; VMAT2 uptake buffer (HEPES), 2 hour incubation at 37° C.
  final component concentration (as a function of the area under the curve): 30%
[2]; T0, sample age 0:01
  Epimer %: 1.76%
[2]; T5, sample age 0:05
  Epimer %: 3.34%
[2]; T10, sample age 0:10
  Epimer %: 5.47%
[2]; T15, sample age 0:15
  Epimer %: 8.62%
[2]; T25, sample age 0:25
  Epimer %: 13.2%
[2]; T30, sample age 0:30
  Epimer %: 14.9%
[2]; T35, sample age 0:35
  Epimer %: 16.2%
[2]; T40, sample age 0:40
  Epimer %: 17.7%
[2]; T45, sample age 0:45
  Epimer %: 18.9%
[2]; T50, sample age 0:50
  Epimer %: 20.1%
[2]; T55, sample age 0:55
  Epimer %: 21.0%
[2]; T60, sample age 1:00
  Epimer %: 22.1%
[2]; T70, sample age 1:10
  Epimer %: 24.3%
[2]; T80, sample age 1:20
  Epimer %: 26.1%
[2]; T90, sample age 1:31
  Epimer %: 26.9%
[2]; T100, sample age 1:40
  Epimer %: 28.0%
[2]; T110, sample age 1:50
  Epimer %: 29.2%
[2]; T120, sample age 2:00
  Epimer %: 30.3%
[3]; dose range from 7.5 to 30 mg, sublingual, human
  dose linearity of Cmax and CL/F: Linear kinetics
[3]; [6]
  AUC(0-∞): 11.92 ng·h/mL
  AUCext (percent of AUC(0-∞) determined by extrapolation): 40.22% and 37.47% and 21.02% and 13.37% and 29.10% and 11.02% and 21.05% and 22.14%
  Tlast (time of last measurable plasma concentration): 2.00 hr and 3.00 hr (4×) and 6.00 hr and 12.00 hr and 4.00 hr
  λz (terminal exponential rate constant): 0.6868 h⁻¹ and 0.3858 h⁻¹ and 0.6119 h⁻¹ and 0.3882 h⁻¹ and 0.531 h⁻¹ and 0.2004 h⁻¹ and 0.6101 h⁻¹ and 0.489 h⁻¹
[3]; [7]
  AUC(0-∞): 24.30 ng·h/mL
  AUCext (percent of AUC(0-∞) determined by extrapolation): 10.70% and 12.80% and 22.39% and 5.75% and 10.95% and 14.68% and 8.64% and 8.10%
  Tlast (time of last measurable plasma concentration): 4.17 hr and 4.00 hr (3×) and 8.00 hr and 11.00 hr and 4.03 hr and 6.00 hr
  λz (terminal exponential rate constant): 0.6055 h⁻¹ and 0.6196 h⁻¹ and 0.4338 h⁻¹ and 0.3591 h⁻¹ and 0.684 h⁻¹ and 0.1908 h⁻¹ and 0.7266 h⁻¹ and 0.5175 h⁻¹
[3]; [8]
  AUC(0-t): 83.89 ng·h/mL and 20.12 ng·h/mL and 87.17 ng·h/mL
  AUCext (percent of AUC(0-∞) determined by extrapolation): 3.89% and 10.44% and 5.56% and 15.37% and 11.12% and 3.26% and 7.85% and 5.01%
  Tlast (time of last measurable plasma concentration): 6.00 hr (2×) and 4.00 hr (3×) and 8.00 hr (2×) and 22.75 hr
  λz (terminal exponential rate constant): 0.6184 h⁻¹ and 0.6931 h⁻¹ and 0.5281 h⁻¹ and 0.25 h⁻¹ and 0.7194 h⁻¹ and 0.1513 h⁻¹ and 0.8194 h⁻¹ and 0.3741 h⁻¹
[3]; [9]
  CL/F (extravascular clearance): 282.7 mL/min/kg and 110.1 mL/min/kg and 240.7 mL/min/kg and 70.7 mL/min/kg and 159.2 mL/min/kg and 17.4 mL/min/kg and 225.5 mL/min/kg and 144.2 mL/min/kg
  AUC(0-∞) Ratio (Epi/Lob): 8.23 and 7.66 and 4.64 and 8.82 and 4.97 and 10.29 and 6.66 and 7.29
[3]; [10]
  CL/F (extravascular clearance): 188.2 mL/min/kg and 120.8 mL/min/kg and 161.7 mL/min/kg and 56.2 mL/min/kg and 175.6 mL/min/kg and 14.5 mL/min/kg and 180.2 mL/min/kg and 97.3 mL/min/kg
  AUC(0-∞) Ratio (Epi/Lob): 10.60 and 7.17 and 8.44 and 9.79 and 6.74 and 12.94 and 6.63 and 10.97
[3]; [11]
  CL/F (extravascular clearance): 153.7 mL/min/kg and 184.5 mL/min/kg and 146.9 mL/min/kg and 55.5 mL/min/kg and 285.9 mL/min/kg and 13.7 mL/min/kg and 259.4 mL/min/kg and 74.9 mL/min/kg
  AUC(0-∞) Ratio (Epi/Lob): 11.77 and 6.33 and 8.63 and 10.30 and 6.07 and 11.84 and 9.02 and 11.44
[3]; human subjects, sublingual lobeline
  ratio of the cumulative amount of urinary epimer to lobeline: approximately 0.5
[3]; human, in vivo
  Combined urinary excretion of lobeline and epimer: ≤ 0.5%
[3]; human, in vivo, 7.5 mg, epimer in plasma, individual human subjects, sublingual lobeline 7.50 mg
  AUC(0-inf): 13.2 ng·h/mL
[3]; human, in vivo, 15 mg, epimer in plasma, individual human subjects, sublingual lobeline 15.0 mg
  AUC(0-inf): 17.3 ng·h/mL
[3]; human, in vivo, 30 mg, epimer in plasma, individual human subjects, sublingual lobeline 30.0 mg
  AUC(0-inf): 91.8 ng·h/mL
[3]; human, in vivo, 30 mg, Terminal exponential phase half-life (T1/2), average
  half-life: ~102 min
[3]; human, in vivo, 30 mg, Terminal exponential phase half-lives (T1/2 values), range
  half-life: 60 to 300 min
[3]; human, in vivo, 30 mg, Tmax values, range
  Tmax: 0.25 to 3 h
[3]; human, in vivo, 30 mg, Tmax, average
  Tmax: 1.3 h
[3]; human, in vivo, mean T1/2 values, human subjects, sublingual lobeline
  half-life: ~120 min
[3]; humans receiving sublingual lobeline 7.5, 15 and 30 mg
  ratio of epimer to lobeline in plasma (Cmax and area under the curve; x to 1): 8-10 and 8 to 10
[4]; HEPES [^3H]DTBZ binding buffer, after 2 hours at 25° C.
  final component concentration (as a function of the area under the curve): 17%
[4]; T0, sample age 0:01
  Epimer %: 1.54%
[4]; T5, sample age 0:06
  Epimer %: 2.16%
[4]; T10, sample age 0:10
  Epimer %: 3.34%
[4]; T15, sample age 0:15
  Epimer %: 4.55%
[4]; T20, sample age 0:20
  Epimer %: 5.27%
[4]; T25, sample age 0:25
  Epimer %: 5.91%
[4]; T30, sample age 0:31
  Epimer %: 7.18%
[4]; T35, sample age 0:35
  Epimer %: 7.30%
[4]; T40, sample age 0:40
  Epimer %: 8.66%
[4]; T45, sample age 0:45
  Epimer %: 9.31%
[4]; T50, sample age 0:50
  Epimer %: 9.94%
[4]; T55, sample age 0:55
  Epimer %: 10.2%
[4]; T60, sample age 1:00
  Epimer %: 10.9%
[4]; T70, sample age 1:10
  Epimer %: 11.9%
[4]; T80, sample age 1:20
  Epimer %: 13.1%
[4]; T90, sample age 1:31
  Epimer %: 14.1%
[4]; T100, sample age 1:40
  Epimer %: 15.2%
[4]; T110, sample age 1:50
  Epimer %: 16.1%
[4]; T120, sample age 2:01
  Epimer %: 17.0%
[5]; Solution 1 (Lobeline in “fresh” DI Water), time 0, pH 6.02
  % Epimer (Mean ± SD): 0.83%
[5]; Solution 1 (“fresh” DI Water), 15 min, pH 6.03-6.24
  % Epimer (Mean ± SD): 0.83 ± 0.054%
[5]; Solution 1 (“fresh” DI Water), 30 min, pH 6.02-6.24
  % Epimer (Mean ± SD): 0.99 ± 0.164%
[5]; Solution 1 (“fresh” DI Water), 45 min, pH 6.13-6.37
  % Epimer (Mean ± SD): 0.95 ± 0.144%
[5]; Solution 1 (“fresh” DI Water), 1 h, pH 6.26-6.52
  % Epimer (Mean ± SD): 1.00 ± 0.196%
[5]; Solution 1 (“fresh” DI Water), 80 min, pH 6.19-6.50
  % Epimer (Mean ± SD): 1.46 ± 0.112%
[5]; Solution 1 (“fresh” DI Water), 100 min, pH 6.16-6.50
  % Epimer (Mean ± SD): 1.50 ± 0.139%
[5]; Solution 1 (“fresh” DI Water), 2 h, pH 5.63-5.88
  % Epimer (Mean ± SD): 1.58 ± 0.599%
[5]; Solution 2 (Lobeline in “8-h” DI Water), time 0, pH 7.87
  % Epimer (Mean ± SD): 1.03%
[5]; Solution 2 (“8-h” DI Water), 15 min, pH 7.78-8.21
  % Epimer (Mean ± SD): 0.66 ± 0.273%
[5]; Solution 2 (“8-h” DI Water), 30 min, pH 7.58-7.85
  % Epimer (Mean ± SD): 0.52 ± 0.214%
[5]; Solution 2 (“8-h” DI Water), 45 min, pH 7.66-7.68
  % Epimer (Mean ± SD): 0.65 ± 0.056%
[5]; Solution 2 (“8-h” DI Water), 1 h, pH 6.84-7.11
  % Epimer (Mean ± SD): 0.80 ± 0.087%
[5]; Solution 2 (“8-h” DI Water), 80 min, pH 6.53-6.79
  % Epimer (Mean ± SD): 0.90 ± 0.150%
[5]; Solution 2 (“8-h” DI Water), 100 min, pH 6.24-6.51
  % Epimer (Mean ± SD): 1.01 ± 0.207%
[5]; Solution 2 (“8-h” DI Water), 2 h, pH 6.21-6.49
  % Epimer (Mean ± SD): 1.22 ± 0.257%
[5]; in vitro with water at pH 7
  ratio of epimer to lobeline obtained in vitro: approximately 0.5
[5]; lobeline dissolved in deionized water, over a 2-h period at 25° C.
  change in epimer concentration: < 1%
